Source: patent publication US20110009381A1, “SOLUBILIZED THIAZOLOPYRIDINES” (Sirtis Pharmaceuticals, Inc., priority 2007, published 2011)

Target: T1, SIRT1 (Homo sapiens, UniProt Q96EB6)
T1 sequence (Q96EB6 1-747): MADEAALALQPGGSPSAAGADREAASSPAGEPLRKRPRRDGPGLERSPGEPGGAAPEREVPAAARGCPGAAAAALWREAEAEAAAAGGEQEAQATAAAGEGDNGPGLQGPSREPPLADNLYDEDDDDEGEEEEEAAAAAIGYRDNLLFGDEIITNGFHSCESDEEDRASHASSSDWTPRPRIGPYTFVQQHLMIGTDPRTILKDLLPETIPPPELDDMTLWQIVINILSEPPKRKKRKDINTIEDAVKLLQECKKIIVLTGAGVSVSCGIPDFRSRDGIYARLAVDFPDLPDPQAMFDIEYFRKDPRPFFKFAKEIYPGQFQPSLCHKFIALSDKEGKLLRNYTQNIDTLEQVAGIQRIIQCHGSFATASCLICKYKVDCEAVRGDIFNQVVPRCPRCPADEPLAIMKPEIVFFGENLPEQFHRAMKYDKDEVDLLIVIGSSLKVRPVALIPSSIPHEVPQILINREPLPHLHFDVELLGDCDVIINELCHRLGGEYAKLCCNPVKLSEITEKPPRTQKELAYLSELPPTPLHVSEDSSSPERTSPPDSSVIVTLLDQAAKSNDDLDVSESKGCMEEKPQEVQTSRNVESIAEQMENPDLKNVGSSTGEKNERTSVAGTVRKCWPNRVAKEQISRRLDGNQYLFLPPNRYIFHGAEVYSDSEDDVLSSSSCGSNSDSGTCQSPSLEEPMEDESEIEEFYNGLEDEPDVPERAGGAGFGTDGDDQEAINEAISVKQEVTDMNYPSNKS
Assay: Mass spectrometry based assay to identify modulators of SIRT1 activity (deacetylation of p53-based acetylated peptide substrate)
Type: biochemical
Settings: 10 nM SIRT1, 0.5 μM peptide substrate, 120 μM βNAD+, 25 minutes at 25° C.; for EC1.5: SIRT1 activation
Summary of the method: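 Activation measured on His-tagged SIRT1 (10 nM, E. coli-expressed) deacetylating a 0.5 μM p53-derived acetyl-peptide with 120 μM βNAD^+ for 25 min at 25 °C, pH 8 Tris-acetate. After formic acid stop, mass spectrometry quantified acetylated versus deacetylated peptide, referenced to DMSO and nicotinamide controls. Reported as EC1.5 and maximum fold activation.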

Compound	FOLD ACT. (percent maximum fold activation)	EC1.5
O=C(Nc1ccccc1-c1nc2cccnc2s1)c1cc(NCC2CCNCC2)nc(-c2ccccc2)n1 [Compound 82]	A (Fold activation≧300%)	A′ (EC1.5<250 nM)
NCCNc1cc(C(=O)Nc2ccccc2-c2nc3cccnc3s2)nc(-c2ccccc2)n1 [Compound 83]	A (Fold activation≧300%)	A (EC1.5≧250 nM and ≦1 uM)
NCCCNc1cc(C(=O)Nc2ccccc2-c2nc3cccnc3s2)nc(-c2ccccc2)n1 [Compound 84]	A (Fold activation≧300%)	A′ (EC1.5<250 nM)
O=C(Nc1ccccc1-c1nc2cccnc2s1)c1cc(N[C@H]2CCCNC2)nc(-c2ccccc2)n1 [Compound 85]	A (Fold activation≧300%)	A (EC1.5≧250 nM and ≦1 uM)
NCCCCCNc1cc(C(=O)Nc2ccccc2-c2nc3cccnc3s2)nc(-c2ccccc2)n1 [Compound 86]	A (Fold activation≧300%)	A′ (EC1.5<250 nM)
NCCCCNc1cc(C(=O)Nc2ccccc2-c2nc3cccnc3s2)nc(-c2ccccc2)n1 [Compound 87]	A (Fold activation≧300%)	A (EC1.5≧250 nM and ≦1 uM)
CN(C)CCCNc1cc(C(=O)Nc2ccccc2-c2nc3cccnc3s2)nc(-c2ccccc2)n1 [Compound 88]	A (Fold activation≧300%)	A (EC1.5≧250 nM and ≦1 uM)
O=C(Nc1ccccc1-c1nc2cccnc2s1)c1cc(NCC2CCCCN2)nc(-c2ccccc2)n1 (centres unmarked) [Compound 89]	A (Fold activation≧300%)	A′ (EC1.5<250 nM)
CCN(CC)CCOc1cc(C(=O)Nc2ccccc2-c2nc3cccnc3s2)nc(-c2ccccc2)n1 [Compound 90]	A (Fold activation≧300%)	A (EC1.5≧250 nM and ≦1 uM)
O=C(Nc1ccccc1-c1nc2cccnc2s1)c1cc(NC2CCOC2=O)nc(-c2ccccc2)n1 (centres unmarked) [Compound 91]	A (Fold activation≧300%)	A′ (EC1.5<250 nM)
O=C(Nc1ccccc1-c1nc2cccnc2s1)c1cc(NC(CO)C(=O)O)nc(-c2ccccc2)n1 (centres unmarked) [Compound 92]	A (Fold activation≧300%)	B (EC1.5>1 and ≦10 uM)
CCN(CC)CCCOc1cc(C(=O)Nc2ccccc2-c2nc3cccnc3s2)nc(-c2ccccc2)n1 [Compound 93]	A (Fold activation≧300%)	A (EC1.5≧250 nM and ≦1 uM)
CN(C)CCOc1cc(C(=O)Nc2ccccc2-c2nc3cccnc3s2)nc(-c2ccccc2)n1 [Compound 94]	A (Fold activation≧300%)	A (EC1.5≧250 nM and ≦1 uM)
O=C(Nc1ccccc1-c1nc2cccnc2s1)c1cc(N[C@@H]2CCCNC2)nc(-c2ccccc2)n1 [Compound 95]	A (Fold activation≧300%)	A′ (EC1.5<250 nM)
CC1(C)OCC(CNc2cc(C(=O)Nc3ccccc3-c3nc4cccnc4s3)nc(-c3ccccc3)n2)O1 (centres unmarked) [Compound 96]	A (Fold activation≧300%)	A (EC1.5≧250 nM and ≦1 uM)
CC1(C)OC[C@H](COc2cc(C(=O)Nc3ccccc3-c3nc4cccnc4s3)nc(-c3ccccc3)n2)O1 [Compound 97]	B (Fold Activation≧150% and <300%)	C (EC1.5>10 uM)
CN1CCC(Nc2cc(C(=O)Nc3ccccc3-c3nc4cccnc4s3)nc(-c3ccccc3)n2)CC1 [Compound 99]	A (Fold activation≧300%)	A′ (EC1.5<250 nM)
CCN1CCC(Nc2cc(C(=O)Nc3ccccc3-c3nc4cccnc4s3)nc(-c3ccccc3)n2)CC1 [Compound 100]	A (Fold activation≧300%)	A′ (EC1.5<250 nM)
CCCN1CCC(Nc2cc(C(=O)Nc3ccccc3-c3nc4cccnc4s3)nc(-c3ccccc3)n2)CC1 [Compound 101]	A (Fold activation≧300%)	A′ (EC1.5<250 nM)
O=C(Nc1ccccc1-c1nc2cccnc2s1)c1cc(OCCCO)nc(-c2ccccc2)n1 [Compound 102]	B (Fold Activation≧150% and <300%)	A (EC1.5≧250 nM and ≦1 uM)

Compound	FOLD ACT. (percent maximum fold activation)	EC1.5
O=C(Nc1ccccc1-c1nc2cccnc2s1)c1cc(OCCCCO)nc(-c2ccccc2)n1 [Compound 103]	B (Fold Activation≧150% and <300%)	C (EC1.5>10 uM)
O=C(Nc1ccccc1-c1nc2cccnc2s1)c1cc(NC2CCNC2)nc(-c2ccccc2)n1 (centres unmarked) [Compound 104]	A (Fold activation≧300%)	A′ (EC1.5<250 nM)
O=C(Nc1ccccc1-c1nc2cccnc2s1)c1cc(NC[C@H](O)CO)nc(-c2ccccc2)n1 [Compound 105]	A (Fold activation≧300%)	A′ (EC1.5<250 nM)
O=C(Nc1ccccc1-c1nc2cccnc2s1)c1cc(NC[C@@H](O)CO)nc(-c2ccccc2)n1 [Compound 106]	A (Fold activation≧300%)	A′ (EC1.5<250 nM)
O=C(Nc1ccccc1-c1nc2cccnc2s1)c1cc(OC[C@H](O)CO)nc(-c2ccccc2)n1 [Compound 107]	B (Fold Activation≧150% and <300%)	A (EC1.5≧250 nM and ≦1 uM)
O=C(Nc1ccccc1-c1nc2cccnc2s1)c1cc(OC[C@@H](O)CO)nc(-c2ccccc2)n1 [Compound 108]	B (Fold Activation≧150% and <300%)	A′ (EC1.5<250 nM)
O=C(Nc1ccccc1-c1nc2cccnc2s1)c1cc(NCC2CCCNC2)nc(-c2ccccc2)n1 (centres unmarked) [Compound 109]	A (Fold activation≧300%)	A′ (EC1.5<250 nM)
CN(C)CCNc1cc(C(=O)Nc2ccccc2-c2nc3cccnc3s2)nc(-c2ccccc2)c1 [Compound 110]	A (Fold activation≧300%)	A′ (EC1.5<250 nM)
Cc1ccc(-c2nc(NCCN(C)C)cc(C(=O)Nc3ccccc3-c3nc4cccnc4s3)n2)cc1 [Compound 111]	A (Fold activation≧300%)	A′ (EC1.5<250 nM)
Cc1cccc(-c2nc(NCCN(C)C)cc(C(=O)Nc3ccccc3-c3nc4cccnc4s3)n2)c1 [Compound 112]	A (Fold activation≧300%)	A′ (EC1.5<250 nM)
O=C(Nc1ccccc1-c1nc2cccnc2s1)c1cc(NC2CCN(Cc3ccccc3)CC2)nc(-c2ccccc2)n1 [Compound 113]	B (Fold Activation≧150% and <300%)	A (EC1.5≧250 nM and ≦1 uM)
CC(C)N1CCC(Nc2cc(C(=O)Nc3ccccc3-c3nc4cccnc4s3)nc(-c3ccccc3)n2)CC1 [Compound 114]	A (Fold activation≧300%)	A′ (EC1.5<250 nM)
O=C(Nc1ccccc1-c1nc2cccnc2s1)c1cc(NC2CCN(c3ccccn3)CC2)nc(-c2ccccc2)n1 [Compound 115]	C (Fold Activation<150%)	C (EC1.5>10 uM)
CC(=O)N1CCC(Nc2cc(C(=O)Nc3ccccc3-c3nc4cccnc4s3)nc(-c3ccccc3)n2)CC1 [Compound 116]	A (Fold activation≧300%)	A′ (EC1.5<250 nM)
CC(C)C(=O)N1CCC(Nc2cc(C(=O)Nc3ccccc3-c3nc4cccnc4s3)nc(-c3ccccc3)n2)CC1 [Compound 117]	A (Fold activation≧300%)	A′ (EC1.5<250 nM)
O=C(Nc1ccccc1-c1nc2cccnc2s1)c1cc(NC2CCN(C3CC3)CC2)nc(-c2ccccc2)n1 [Compound 118]	A (Fold activation≧300%)	A′ (EC1.5<250 nM)
O=C(Nc1ccccc1-c1nc2cccnc2s1)c1cc(N2CCNCC2)cc(-c2ccccc2)n1 [Compound 119]	A (Fold activation≧300%)	A′ (EC1.5<250 nM)
O=C(Nc1ccccc1-c1nc2cccnc2s1)c1cc(N2CCN3CCC[C@H]3C2)nc(-c2ccccc2)n1 [Compound 120]	A (Fold activation≧300%)	A (EC1.5≧250 nM and ≦1 uM)
CNCCNc1cc(C(=O)Nc2ccccc2-c2nc3cccnc3s2)nc(-c2ccccc2)n1 [Compound 121]	A (Fold activation≧300%)	A′ (EC1.5<250 nM)
CS(=O)(=O)NCCOc1cc(C(=O)Nc2ccccc2-c2nc3cccnc3s2)nc(-c2ccccc2)n1 [Compound 122]	B (Fold Activation≧150% and <300%)	A (EC1.5≧250 nM and ≦1 uM)
